From PMC8780855, “Synthesis, Crystallographic, Quantum Chemical, Antitumor, and Molecular Docking/Dynamic Studies of 4-Hydroxycoumarin-Neurotransmitter Derivatives” (International Journal of Molecular Sciences, 2022)
Where two headings read alike, the source gives them in different places.

Key:
[1] = system: HCT-116 cells; test: MTT cytotoxicity assay, HCT-116; format: cell-based, human; details: for IC50: Homo sapiens, MTT; for Selectivity index HCT-116/MRC-5 24 h: SI between HCT-116 and MRC-5, 24 h; for Selectivity index HCT-116/MRC-5 72 h: SI between HCT-116 and MRC-5, 72 h
Method: (§1) The in vitro cytotoxic activity of the tested compounds was investigated on four model systems: human colorectal carcinoma HCT-116, human breast cancer MDA-MB-231, human cervical cancer HeLa, and human healthy fibroblast MRC-5 cell lines. The cell lines of low passages were purchased from ECACC and were cultivated in Dulbecco’s Modified Eagle Medium (DMEM; Sigma-Aldrich, Germany, D5796) supplemented with 10% fetal bovine serum (Sigma-Aldrich, F4135-500ML) and 1% penicillin/streptomycin (Sigma-Aldrich, P4333-100ML) in 75 cm^2 culture flasks. The cells were harvested in an incubator under a humidified atmosphere with 5% CO2 at a physiological temperature of 37 °C, and after a few passages and a confluence of about 90%, the cells were used for the MTT assay.
(§2) The capacity of tested compounds to prevent the growth of four different cell lines was assessed by a standardized MTT assay (Laboratory for Bioengineering protocol CB-005, Kragujevac, Serbia), based on spectrophotometric measurement of the reduction of 3-(4,5-dimethylthiazol-2-yl)-2,5-diphenyltetrazolium bromide (MTT, Acros Organics, NJ, USA 158990010) to purple formazan crystals subsequently dissolved in dimethyl sulfoxide (DMSO; Fisher Chemical, IL, USA D/4121/PB15). A number of 1 × 10^4 cells per well (in 96-well microplates) were seeded and maintained in an incubator for 24 h to allow for cell attachment. After the incubation period, the cells were treated with the investigated compounds in the concentration range from 0.1 to 500 µM dissolved in DMEM. Cytotoxic effect was calculated 24 and 72 h from treatment by determination of the number of viable cells. The absorbance measured at 550 nm and was performed on a microplate reader (Rayto 2100C, China). The cytotoxicity was derived as the ratio of the absorbance of the treated cells divided with the absorbance of negative control (untreated cells) and multiplied by 100 to obtain the percentage of the viable cells.

[2] = system: HeLa cells; test: MTT cytotoxicity assay, HeLa; format: cell-based, human; details: for IC50: Homo sapiens, HeLa, MTT; for Selectivity index HeLa/MRC-5 24 h: SI between HeLa and MRC-5, 24 h; for Selectivity index HeLa/MRC-5 72 h: SI between HeLa and MRC-5, 72 h
Method: as §1, §2

[3] = system: MDA-MB-231 cells; test: MTT cytotoxicity assay, MDA-MB-231; format: cell-based; details: Homo sapiens
Method: as §1, §2

[4] = system: MRC-5 cells; test: MTT cytotoxicity assay, MRC-5 healthy fibroblasts; format: cell-based; details: Homo sapiens
Method: as §1, §2

[5] = read-out: IC50 HCT-116 24 h, HCT-116, 24 h exposure
[6] = HCT-116, 72 h exposure, read-out: IC50 HCT-116 72 h
[7] = read-out: IC50 HeLa 24 h, 24 h exposure
[8] = 72 h exposure, read-out: IC50 HeLa 72 h
[9] = MDA-MB-231, 72 h exposure, read-out: IC50 MDA-MB-231 72 h
[10] = read-out: IC50 MDA-MB-231 24 h, MDA-MB-231, 24 h exposure
[11] = MRC5, MRC-5, 72 h exposure, read-out: IC50 MRC-5 72 h
[12] = MRC5, read-out: IC50 MRC-5 24 h, MRC-5, 24 h exposure

| SMILES | IC50 [1, 5] | IC50 [1, 6] | Selectivity index HCT-116/MRC-5 24 h [1] | Selectivity index HCT-116/MRC-5 72 h [1] | IC50 [2, 7] | IC50 [2, 8] | Selectivity index HeLa/MRC-5 24 h [2] | Selectivity index HeLa/MRC-5 72 h [2] | IC50 [3, 9] | IC50 [3, 10] | IC50 [4, 11] | IC50 [4, 12] |
| --- | --- | --- | --- | --- | --- | --- | --- | --- | --- | --- | --- | --- |
| C/C(NCCc1ccc(O)cc1)=C1\C(=O)Oc2ccccc2C1=O [L1, (E)-3-(1-((4-hydroxyphenethyl)amino)ethylidene)chromane-2,4-dione] | > 500 µM | 170 µM | 1 | 2.9 | > 500 µM | 452 µM | 1 | 1.1 | > 500 µM | > 500 µM | > 500 µM | > 500 µM |
| C/C(NCC(O)c1ccc(O)cc1)=C1\C(=O)Oc2ccccc2C1=O (stereo not drawn) [L2, (E)-3-(1-((2-hydroxy-2-(4-hydroxyphenyl)ethyl)amino)ethylidene)chromane-2,4-dione] | > 500 µM | 248 µM | 1 | 2.0 | > 500 µM | 206 µM | 1 | 2.4 | > 500 µM | > 500 µM | > 500 µM | > 500 µM |
| C/C(NCC(O)c1ccc(O)c(O)c1)=C1\C(=O)Oc2ccccc2C1=O (stereo not drawn) [L3, (E)-3-(1-((2-(3,4-dihydroxyphenyl)-2-hydroxyethyl)amino)ethylidene)chromane-2,4-dione] | > 500 µM | 107 µM | 1 | 4.7 | > 500 µM | 495 µM | 1 | 1 | > 500 µM | > 500 µM | > 500 µM | > 500 µM |
| COc1cc(CCN/C(C)=C2/C(=O)Oc3ccccc3C2=O)ccc1O [L4, (E)-3-(1-((4-hydroxy-3-methoxyphenethyl)amino)ethylidene)chromane-2,4-dione] | > 500 µM | 74 µM | 1 | 6.8 | > 500 µM | 150 µM | 1 | 3.3 | > 500 µM | > 500 µM | > 500 µM | > 500 µM |
| CC(NCCc1ccc(O)c(O)c1)=C1C(=O)Oc2ccccc2C1=O [L5, 3-(1-((3,4-dihydroxyphenethyl)amino)ethylidene)-chroman-2,4-dione] | > 500 µM | 73 µM | 1 | 6.8 | > 500 µM | 92 µM | 1 | 5.4 | > 500 µM | > 500 µM | > 500 µM | > 500 µM |
